The supplement of paper PMC11451515

System: P12-Ichikawa
Test: cell viability relative to DMSO control; higher = less cytotoxic
Conditions: 48 h
How it was run: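 Library compounds in DMSO were pin-dosed in an 11-point threefold series (47 μM to 0.79 nM) onto leukemia cells in 1536-well plates (5 μl). Plates held 500 cells/well of NOMO1 or SEM or 1000 cells/well of P12-Ichikawa, each adapted for at least four passages in each medium. Luminescence was read with CellTiter-Glo One after 48 h at 37°C. Viability means the per-plate percentage relative to DMSO wells, using cell-free wells as background.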

[1] = HPLM + 10% dialyzed FBS, 0.000781 µM
[2] = HPLM + 10% dialyzed FBS, 0.00234 µM
[3] = HPLM + 10% dialyzed FBS, 0.00702 µM
[4] = HPLM + 10% dialyzed FBS, 0.0211 µM
[5] = HPLM + 10% dialyzed FBS, 0.0632 µM
[6] = HPLM + 10% dialyzed FBS, 0.19 µM
[7] = HPLM + 10% dialyzed FBS, 0.569 µM
[8] = HPLM + 10% dialyzed FBS, 1.71 µM
[9] = HPLM + 10% dialyzed FBS, 5.12 µM
[10] = HPLM + 10% dialyzed FBS, 15.4 µM
[11] = HPLM + 10% dialyzed FBS, 46.1 µM
[12] = RPMI 5 mM glucose + 10% FBS, 0.000781 µM
[13] = RPMI 5 mM glucose + 10% FBS, 0.00234 µM
[14] = RPMI 5 mM glucose + 10% FBS, 0.00702 µM
[15] = RPMI 5 mM glucose + 10% FBS, 0.0211 µM
[16] = RPMI 5 mM glucose + 10% FBS, 0.0632 µM
[17] = RPMI 5 mM glucose + 10% FBS, 0.19 µM
[18] = RPMI 5 mM glucose + 10% FBS, 0.569 µM
[19] = RPMI 5 mM glucose + 10% FBS, 1.71 µM
[20] = RPMI 5 mM glucose + 10% FBS, 5.12 µM
[21] = RPMI 5 mM glucose + 10% FBS, 15.4 µM
[22] = RPMI 5 mM glucose + 10% FBS, 46.1 µM
[23] = RPMI 5 mM glucose + 10% dialyzed FBS, 0.000781 µM
[24] = RPMI 5 mM glucose + 10% dialyzed FBS, 0.00234 µM
[25] = RPMI 5 mM glucose + 10% dialyzed FBS, 0.00702 µM
[26] = RPMI 5 mM glucose + 10% dialyzed FBS, 0.0211 µM
[27] = RPMI 5 mM glucose + 10% dialyzed FBS, 0.0632 µM
[28] = RPMI 5 mM glucose + 10% dialyzed FBS, 0.19 µM
[29] = RPMI 5 mM glucose + 10% dialyzed FBS, 0.569 µM
[30] = RPMI 5 mM glucose + 10% dialyzed FBS, 1.71 µM
[31] = RPMI 5 mM glucose + 10% dialyzed FBS, 5.12 µM
[32] = RPMI 5 mM glucose + 10% dialyzed FBS, 15.4 µM
[33] = RPMI 5 mM glucose + 10% dialyzed FBS, 46.1 µM

Row | Compound | cell viability [1] | cell viability [2] | cell viability [3] | cell viability [4] | cell viability [5] | cell viability [6] | cell viability [7] | cell viability [8] | cell viability [9] | cell viability [10] | cell viability [11] | cell viability [12] | cell viability [13] | cell viability [14] | cell viability [15] | cell viability [16] | cell viability [17] | cell viability [18] | cell viability [19] | cell viability [20] | cell viability [21] | cell viability [22] | cell viability [23] | cell viability [24] | cell viability [25] | cell viability [26] | cell viability [27] | cell viability [28] | cell viability [29] | cell viability [30] | cell viability [31] | cell viability [32] | cell viability [33]
1 | CC[C@H](CO)Nc1nc(NCc2ccccc2)c2ncn(C(C)C)c2n1 | 85.4% | 93.9% | 95.1% | 91.7% | 94.8% | 95.1% | 93.1% | 86.4% | 91.6% | 85.2% | 79.5% | 91.2% | 93.1% | 93.2% | 92.9% | 98.1% | 95.2% | 95.9% | 82.8% | 86.4% | 77.6% | 78.2% | 91.2% | 94.4% | 95.5% | 83.9% | 89.5% | 94.3% | 92% | 88.7% | 87.3% | 86.6% | 82%
2 | COc1cccc(OC)c1-c1cc(C(=O)NC2(C(=O)O)C3CC4CC(C3)CC2C4)nn1-c1ccnc2cc(Cl)ccc12 (stereo not given) | 115% | 118% | 112% | 116% | 114% | 109% | 114% | 113% | 101% | 94.7% | 86.1% | 113% | 119% | 126% | 118% | 119% | 99.4% | 126% | 110% | 115% | 112% | 97.5% | 113% | 118% | 119% | 114% | 117% | 110% | 101% | 110% | 107% | 108% | 99.9%
3 | OC[C@H]1OC(O)C[C@@H](O)[C@@H]1O (stereo not given in full) | 122% | 124% | 114% | 118% | 121% | 120% | 115% | 119% | 121% | 118% | 107% | 119% | 122% | 124% | 115% | 134% | 119% | 131% | 131% | 120% | 116% | 112% | 107% | 125% | 119% | 117% | 116% | 116% | 119% | 123% | 124% | 122% | 110%
4 | CCc1nc(N)nc(N)c1-c1ccc(Cl)cc1 | 93.6% | 97.3% | 89.5% | 98.6% | 95.5% | 89.1% | 76.1% | 56.5% | 46.2% | 33.8% | 21.9% | 91.2% | 91.9% | 88.6% | 93.4% | 107% | 97% | 98.4% | 90% | 87.3% | 68.4% | 57.1% | 82.2% | 91.3% | 89% | 96.6% | 95.3% | 90.1% | 84.3% | 85.2% | 86.5% | 48.3% | 24.4%
5 | Cc1cc(/C=c2/sc3nc4ccccc4n3c2=O)c(C)n1-c1ccccc1 | 121% | 127% | 123% | 119% | 123% | 119% | 128% | 125% | 122% | 113% | 112% |  |  |  |  |  |  |  |  |  |  |  | 110% | 126% | 116% | 132% | 126% | 121% | 124% | 124% | 105% | 112% | 120%
6 | N#CC1(c2cccc(C(=O)Nc3cc(Oc4ccc5nc(NC(=O)C6CC6)sc5n4)ccc3F)c2Cl)CC1 | 114% | 111% | 115% | 115% | 112% | 108% | 97% | 72.8% | 66.7% | 29% | 21.1% | 110% | 114% | 110% | 108% | 108% | 106% | 81.2% | 74.7% | 59.3% | 34.3% | 13.4% | 105% | 113% | 118% | 117% | 115% | 115% | 90.5% | 69% | 57.6% | 38.7% | 23.7%
7 | CN1CCN(CC1)C2=CC3=C([NH]C(=N3)C/4=C(\N)C5=C(F)C=CC=C5NC4=O)C=C2 | 103% | 106% | 109% | 99.2% | 88.7% | 99.7% | 96.3% | 95% | 73% | 65.5% | 37% | 107% | 103% | 111% | 112% | 88.8% | 104% | 91.9% | 89.2% | 60.2% | 45.2% | 30.4% | 112% | 112% | 106% | 107% | 102% | 107% | 97.8% | 91.3% | 67.1% | 46.3% | 29.4%
8 | CCCCCN(C)CCC(O)(P(=O)([O-])O)P(=O)(O)O | 88% | 88.1% | 87.1% | 96% | 95% | 97.6% | 99.5% | 92.9% | 93.4% | 99.2% | 92.4% | 81.4% | 86.5% | 91.3% | 95.6% | 85.8% | 86.6% | 94% | 89.7% | 91.3% | 92.6% | 83.4% | 79% | 85.2% | 81.1% | 95.3% | 88.9% | 84.5% | 88.9% | 79.4% | 86.1% | 87.8% | 86.9%
9 | c1ccc2c(CN3CCNCC3)cccc2c1 | 111% | 112% | 113% | 108% | 113% | 112% | 109% | 116% | 118% | 111% | 35% | 106% | 104% | 102% | 112% | 111% | 107% | 112% | 111% | 112% | 110% | 26.4% | 107% | 108% | 109% | 107% | 114% | 115% | 117% | 110% | 118% | 119% | 41.1%
10 | O=C1\C=C(OC2=C(C=CC=C12)C3=CC=CC4=C3SC5=C4C=CC=C5)\N6CCOCC6 | 119% | 125% | 127% | 129% | 137% | 130% | 130% | 131% | 129% | 132% | 121% |  |  |  |  |  |  |  |  |  |  |  |  |  |  |  |  |  |  |  |  |  | 
11 | CC(C)[C@]12O[C@H]1[C@@H]3O[C@@]34[C@@]5(C)CC\C6=C(COC6=O)/[C@@H]5C[C@@H]7O[C@]47[C@@H]2O | 97.5% | 9.15% | 6.65% | 7.98% | 9.04% | 8.65% | 9.22% | 8.95% | 8.4% | 6.67% | 4.18% | 102% | 16.6% | 8.24% | 5.66% | 7.99% | 8.04% | 7% | 6.95% | 5.74% | 4.33% | 2.61% | 101% | 10.6% | 8.79% | 7.77% | 9.01% | 8.98% | 9.99% | 9.74% | 9.21% | 6.99% | 5.18%
12 | OC1=C(Cl)C=C(N\C2=C(\C(=O)NC2=O)C3=C(C=CC=C3)[N+]([O-])=O)C=C1 | 100% | 100% | 98.9% | 102% | 112% | 97.7% | 103% | 99.5% | 90.1% | 87.4% | 79.5% | 98.6% | 109% | 105% | 110% | 99.4% | 98.9% | 111% | 105% | 104% | 83.9% | 58.1% | 100% | 107% | 112% | 115% | 110% | 109% | 113% | 106% | 109% | 86.7% | 69.5%
13 | c1coc(CNc2ncnc3nc[nH]c23)c1 |  |  |  |  |  |  |  |  |  |  |  |  |  |  |  |  |  |  |  |  |  |  | 123% | 132% | 116% | 122% | 131% | 131% | 130% | 127% | 122% | 115% | 105%
14 | CC1(C)CCC(C)(C)c2cc(NC(=O)c3ccc(C(=O)O)cc3)ccc21 | 73.7% | 116% | 101% | 102% | 107% | 106% | 105% | 104% | 106% | 101% | 96.4% | 102% | 103% | 93.9% | 96.2% | 103% | 97.8% | 104% | 109% | 101% | 98.9% | 88.5% | 96.2% | 104% | 98.4% | 108% | 110% | 105% | 116% | 108% | 107% | 102% | 79.6%
15 | Clc1ccc(C(c2ccccc2Cl)C(Cl)Cl)cc1 (stereo not given) | 113% | 119% | 116% | 112% | 118% | 119% | 107% | 110% | 103% | 95.4% | 91.6% | 122% | 118% | 116% | 109% | 119% | 107% | 104% | 116% | 106% | 103% | 94.4% | 122% | 120% | 109% | 112% | 116% | 107% | 106% | 106% | 103% | 99.6% | 97.2%
16 | O=C1c2ccccc2-c2n[nH]c3cccc1c23 | 96.5% | 102% | 107% | 111% | 107% | 108% | 81% | 106% | 80% | 46.6% | 12.8% | 106% | 109% | 107% | 113% | 109% | 111% | 84.6% | 106% | 68.4% | 48.9% | 10.7% | 98.1% | 97.2% | 98.5% | 108% | 112% | 100% | 87.6% | 101% | 78% | 62.3% | 16.4%
17 | CC1=CC/2=C(C=C1C)N(C[C@@H](O)[C@@H](O)[C@@H](O)CO)C/3=N/C(=O)NC(=O)C3=N2 | 118% | 123% | 117% | 116% | 120% | 129% | 113% | 109% | 115% | 103% | 107% |  |  |  |  |  |  |  |  |  |  |  | 122% | 122% | 121% | 132% | 123% | 121% | 118% | 113% | 108% | 105% | 102%
